# Molecular target: High affinity nerve growth factor receptor (Homo sapiens, UniProt P04629)
# Test: TrkA Omnia Assay: Trk enzymatic selectivity was assessed using Omnia Kinase Assay reagents from Invitrogen Corp. Enzyme (TrkA from Invitrogen Corp.) and test compound (various concentrations) were incubated for 10 minutes at ambient temperature in a 384-well white polypropylene plate (Nunc catalog#267462). Omnia Tyr Peptide #4, as well as ATP, were then added to the plate. Final concentrations were as follows: 20 nM enzyme, 500 μM of ATP, 10 μM peptide substrate. The assay buffer consisted of 25 mM MOPS pH 7.5, 0.005% (v/v) Triton X-100 and 5 mM MgCl2. The production of phosphorylated peptide was monitored continuously for 70 minutes using a Molecular Devices FlexStation II384 microplate reader (excitation=360 nm; emission=485 nm). Initial rates were calculated from the progress curves. IC50 values were calculated from these rates using either a 4 or 5-parameter logistic curve fit.
# High affinity nerve growth factor receptor, sequence (P04629 whole entry): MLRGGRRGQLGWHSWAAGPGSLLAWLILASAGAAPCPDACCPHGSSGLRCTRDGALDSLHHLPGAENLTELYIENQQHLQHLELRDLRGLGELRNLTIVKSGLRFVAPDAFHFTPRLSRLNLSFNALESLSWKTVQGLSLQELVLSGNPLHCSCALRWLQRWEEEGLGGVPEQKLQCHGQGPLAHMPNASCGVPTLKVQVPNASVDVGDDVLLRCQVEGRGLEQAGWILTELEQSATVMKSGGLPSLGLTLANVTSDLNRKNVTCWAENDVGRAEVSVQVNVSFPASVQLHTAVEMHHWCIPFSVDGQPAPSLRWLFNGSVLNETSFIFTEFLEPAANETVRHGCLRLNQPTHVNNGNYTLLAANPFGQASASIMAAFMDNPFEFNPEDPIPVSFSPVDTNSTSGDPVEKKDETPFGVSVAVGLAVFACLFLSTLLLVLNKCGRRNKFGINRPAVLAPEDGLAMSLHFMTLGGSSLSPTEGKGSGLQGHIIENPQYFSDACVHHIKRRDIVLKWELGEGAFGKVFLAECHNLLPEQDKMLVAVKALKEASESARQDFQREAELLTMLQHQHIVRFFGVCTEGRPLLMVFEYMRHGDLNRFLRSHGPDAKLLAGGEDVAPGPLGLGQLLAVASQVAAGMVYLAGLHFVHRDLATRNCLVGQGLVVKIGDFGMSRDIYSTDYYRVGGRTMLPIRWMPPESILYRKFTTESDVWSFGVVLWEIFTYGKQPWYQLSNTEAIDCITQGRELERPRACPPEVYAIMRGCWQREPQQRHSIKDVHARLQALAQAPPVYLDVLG
row,IC50 [nM],Compound
1,< 100,COCCN1C[C@@H](NC(=O)Nc2c(C)c(-c3cnn(C)c3)nn2-c2cccc(Cl)c2)[C@H](c2ccc(F)c(F)c2)C1
2,< 100,COCCN1C[C@@H](NC(=O)Nc2c(SC)c(C)nn2-c2ccccc2)[C@H](c2ccc(F)c(F)c2)C1
3,< 100,COCCN1C[C@@H](NC(=O)Nc2c(C)c(-c3cnn(C)c3)nn2-c2cccc(F)c2)[C@H](c2ccc(F)cc2)C1
4,< 100,CCOc1nn(-c2ccccc2)c(NC(=O)N[C@@H]2CN(CCOC)C[C@H]2c2cncc(Cl)c2)c1C (relative stereo)
5,< 100,COCCN1C[C@@H](NC(=O)Nc2c(Br)c(C)nn2-c2ccccc2)[C@H](c2cc(F)cc(F)c2)C1
6,< 100,Cc1c(-c2ccc(=O)n(C)c2)nn(-c2ccccc2)c1NC(=O)N[C@H]1CN(CC(F)(F)F)C[C@@H]1c1ccccc1
7,< 100,COCCN1C[C@@H](NC(=O)Nc2c(C)c(-c3cnn(C)c3)nn2-c2ccccc2)[C@H](c2cccc(C#N)c2)C1
8,< 100,COCCN1C[C@@H](NC(=O)Nc2c(C)c(-c3cnn(C)c3)nn2-c2ccccc2)[C@H](c2ccc(F)cn2)C1 (relative stereo)
9,< 100,COCCN1C[C@@H](NC(=O)Nc2c(C)c(-c3cnn(C)c3)nn2-c2ccccc2)[C@H](c2ccccc2)C1
10,< 100,COCCN1C[C@@H](NC(=O)Nc2c(C)c(-c3cnn(C)c3)nn2-c2ccc(F)c(Cl)c2)[C@H](c2ccc(F)c(F)c2)C1
11,< 100,COCCN1C[C@@H](NC(=O)Nc2c(Cl)c(-c3cnn(C)c3)nn2-c2ccccc2)[C@H](c2cncc(F)c2)C1
12,< 100,COCCN1C[C@@H](NC(=O)Nc2cc(-c3ccc(C(=O)N(C)C)cc3)nn2C)[C@H](c2ccc(F)c(F)c2)C1
13,< 100,O=C(Nc1c2c(nn1-c1ccccc1)CCC2)N[C@@H]1CN(CC(F)F)C[C@H]1c1ccc(F)cc1 (relative stereo)
14,< 100,COc1ncccc1N1C[C@@H](NC(=O)Nc2c(C)c(-c3cnn(C)c3)nn2-c2ccccc2)[C@H](c2ccccc2)C1
15,< 100,COCCN1C[C@@H](NC(=O)Nc2c(C)c(-c3cnn(C)c3)nn2-c2cccc(Cl)c2F)[C@H](c2ccc(F)c(F)c2)C1
16,< 100,Cn1cc(-c2nn(-c3ccccc3)c(NC(=O)N[C@H]3CN(CC(F)(F)F)C[C@@H]3c3ccccc3)c2Cl)cn1
17,< 100,CCOc1nn(-c2ccccc2)c(NC(=O)N[C@H]2CN(CC(F)(F)F)C[C@@H]2c2cccc(F)c2)c1C
18,< 100,COCCN1C[C@@H](NC(=O)Nc2c(C)c(-c3cnn(C)c3)nn2-c2ccccc2F)[C@H](c2ccc(F)cc2)C1
19,< 100,COCCN1C[C@@H](NC(=O)Nc2c(C)c(-c3cnn(C)c3)nn2-c2ccccc2)[C@H](c2csnn2)C1 (relative stereo)
20,< 100,COCCN1C[C@@H](NC(=O)Nc2c(Cl)c(C)nn2-c2ccccc2)[C@H](c2cc(F)cc(F)c2)C1
21,< 100,COCCN1C[C@@H](NC(=O)Nc2c(C)c(-c3cnn(C)c3)nn2-c2ccccc2)[C@H](c2ccc(C#N)cc2)C1
22,< 100,COCCN1C[C@@H](NC(=O)Nc2c(C)c(-c3cnn(C)c3)nn2-c2ccccc2)[C@H](c2ccc(F)c(F)c2)C1
23,< 100,COCCN1C[C@@H](NC(=O)Nc2c(Br)c(C)nn2-c2ccccc2)[C@H](c2ccc(F)cn2)C1 (relative stereo)
